Assay results as given in US20180000085A1, “USE OF PICOLINAMIDE COMPOUNDS WITH FUNGICIDAL ACTIVITY” (DOW AGROSCIENCES LLC, priority 2014, published 2018).

Experiments:
Format in all cases: in vivo
Details in all cases: 100 ppm, 1 Day Protectant
Leptosphaeria nodorum = assay: Wheat glume blotch (LEPTNO) disease control
Description: All fungicides were evaluated using the aforementioned method for their activity vs. all target diseases, unless stated otherwise. Wheat leaf blotch and brown rust activity were also evaluated using track spray applications, in which case the fungicides were formulated as EC formulations, containing 0.1% Trycol 5941 in the spray solutions. Wheat plants (variety Yuma) were grown from seed in a greenhouse in 50% mineral soil/50% soil-less Metro mix until the first leaf was fully emerged, with 7-10 seedlings per pot. These plants were inoculated with an aqueous spore suspension of Zymoseptoria tritici either prior to or after fungicide treatments. After inoculation the plants were kept in 100% relative humidity (one day in a dark dew chamber followed by two to three days in a lighted dew chamber at 20° C.) to permit spores to germinate and infect the leaf. The plants were then transferred to a greenhouse set at 20° C. for disease to develop. When disease symptoms were fully expressed on the 1st leaves of untreated plants, infection levels were assessed on a scale of 0 to 100 percent disease severity. Percent disease control was calculated using the ratio of disease severity on treated plants relative to untreated plants. Example C: Evaluation of Fungicidal Activity: Wheat Glume Blotch (Leptosphaeria nodorum; Bayer Code […]) Wheat plants (variety Yuma) were grown from seed in a greenhouse in 50% mineral soil/50% soil-less Metro mix until the first leaf was fully emerged, with 7-10 seedlings per pot. These plants were inoculated with an aqueous spore suspension of Leptosphaeria nodorum 24 hr after fungicide treatments. After inoculation the plants were kept in 100% relative humidity (one day in a dark dew chamber followed by two days in a lighted dew chamber at 20° C.) to permit spores to germinate and infect the leaf. The plants were then transferred to a greenhouse set at 20° C. for disease to develop. Fungicide formulation, application and disease assessment followed the procedures as described in the Example A.

Venturia inaequalis = assay: Apple scab (VENTIN) disease control
Description: All fungicides were evaluated using the aforementioned method for their activity vs. all target diseases, unless stated otherwise. Wheat leaf blotch and brown rust activity were also evaluated using track spray applications, in which case the fungicides were formulated as EC formulations, containing 0.1% Trycol 5941 in the spray solutions. Wheat plants (variety Yuma) were grown from seed in a greenhouse in 50% mineral soil/50% soil-less Metro mix until the first leaf was fully emerged, with 7-10 seedlings per pot. These plants were inoculated with an aqueous spore suspension of Zymoseptoria tritici either prior to or after fungicide treatments. After inoculation the plants were kept in 100% relative humidity (one day in a dark dew chamber followed by two to three days in a lighted dew chamber at 20° C.) to permit spores to germinate and infect the leaf. The plants were then transferred to a greenhouse set at 20° C. for disease to develop. When disease symptoms were fully expressed on the 1st leaves of untreated plants, infection levels were assessed on a scale of 0 to 100 percent disease severity. Percent disease control was calculated using the ratio of disease severity on treated plants relative to untreated plants. […] Seedlings with two expanding young leaves at the top (older leaves at bottom of the plants were trimmed) were used in the test. Plants were inoculated with a spore suspension of Venturia inaequalis 24 hr after fungicide treatment and kept in a 22° C. dew chamber with 100% relative humidity for 48 hr, and then moved to a greenhouse set at 20° C. for disease to develop. Fungicide formulation, application and disease assessment on the sprayed leaves followed the procedures as described in the Example A.

Erysiphe cichoracearum = assay: Powdery mildew of cucumber (ERYSCI) disease control
Description: All fungicides were evaluated using the aforementioned method for their activity vs. all target diseases, unless stated otherwise. Wheat leaf blotch and brown rust activity were also evaluated using track spray applications, in which case the fungicides were formulated as EC formulations, containing 0.1% Trycol 5941 in the spray solutions. Wheat plants (variety Yuma) were grown from seed in a greenhouse in 50% mineral soil/50% soil-less Metro mix until the first leaf was fully emerged, with 7-10 seedlings per pot. These plants were inoculated with an aqueous spore suspension of Zymoseptoria tritici either prior to or after fungicide treatments. After inoculation the plants were kept in 100% relative humidity (one day in a dark dew chamber followed by two to three days in a lighted dew chamber at 20° C.) to permit spores to germinate and infect the leaf. The plants were then transferred to a greenhouse set at 20° C. for disease to develop. When disease symptoms were fully expressed on the 1st leaves of untreated plants, infection levels were assessed on a scale of 0 to 100 percent disease severity. Percent disease control was calculated using the ratio of disease severity on treated plants relative to untreated plants. […] Plants were inoculated with a spore suspension 24 hr following fungicide treatments. After inoculation the plants remained in the greenhouse set at 20° C. until disease was fully expressed. Fungicide formulation, application and disease assessment on the sprayed leaves followed the procedures as described in the Example A.

Structure (SMILES)	LEPTNO disease control, 1DP (Leptosphaeria nodorum)	VENTIN disease control, 1DP (Venturia inaequalis)	ERYSCI disease control, 1DP (Erysiphe cichoracearum)
CCCOC(CC)C(Oc1ccccc1)C(C)OC(=O)C(C)NC(=O)c1nccc(OC)c1OCOC(C)=O (centres unmarked) [Cmpd 446]	A (> 80)		
CCC(CC)[C@@H](Oc1ccccc1)[C@H](C)OC(=O)[C@H](C)NC(=O)c1nccc(OC)c1OC(C)=O [Cmpd 479]	A (> 80)	A (> 80)	A (> 80)
COc1ccnc(C(=O)N[C@@H](C)C(=O)O[C@@H](C)[C@H](Oc2cc(F)cc(Cl)c2)C(C)C)c1OCOC(C)=O [Cmpd 617]	A (> 80)		
COc1ccnc(C(=O)N[C@@H](C)C(=O)O[C@@H](C)[C@H](Oc2ccccc2)c2ccccc2)c1OCOC(C)=O [Cmpd 500]	A (> 80)	B (≤ 80)	
CCC(C)C(Oc1ccccc1)C(C)OC(=O)C(C)NC(=O)c1nccc(OC)c1OC(C)=O (centres unmarked) [Cmpd 691]	A (> 80)		
COc1ccnc(C(=O)N[C@@H](C)C(=O)O[C@@H](C)[C@H](Oc2cccc(F)c2)c2ccccc2)c1OCOC(C)=O [Cmpd 574]	A (> 80)		
COc1ccnc(C(=O)N[C@@H](C)C(=O)O[C@@H](C)[C@H](Oc2ccccc2)C(C)C)c1OC(C)=O [Cmpd 478]	A (> 80)		B (≤ 80)
COc1ccnc(C(=O)N[C@@H](C)C(=O)O[C@@H](C)[C@H](Oc2cc(F)cc(Cl)c2)c2ccccc2)c1OC(C)=O [Cmpd 642]	A (> 80)	A (> 80)	
COc1ccnc(C(=O)N[C@@H](C)C(=O)O[C@@H](C)[C@@H](Oc2ccccc2)C(C)C)c1OCOC(C)=O [Cmpd 552]		B (≤ 80)	
COc1ccnc(C(=O)N[C@H](C)C(=O)O[C@H](C)[C@@H](Oc2ccccc2)C(C)C)c1OCOC(C)=O [Cmpd 548]		B (≤ 80)	
COc1ccnc(C(=O)N[C@H](C)C(=O)O[C@H](C)[C@H](Oc2ccccc2)C(C)C)c1OCOC(C)=O [Cmpd 560]		B (≤ 80)	
COc1ccnc(C(=O)N[C@@H](C)C(=O)O[C@H](C)[C@@H](Oc2ccccc2)c2ccccc2)c1OCOC(C)=O [Cmpd 547]		B (≤ 80)	
COc1ccnc(C(=O)N[C@H](C)C(=O)O[C@@H](C)[C@H](Oc2ccccc2)C(C)C)c1OCOC(C)=O [Cmpd 558]		B (≤ 80)	
C=CC(C)C(Oc1ccccc1)C(C)OC(=O)C(C)NC(=O)c1nccc(OC)c1OCOC(C)=O (centres unmarked) [Cmpd 694]	A (> 80)	B (≤ 80)	
COc1ccnc(C(=O)N[C@@H](C)C(=O)O[C@@H](C)[C@H](Oc2cccc(Cl)c2)C(C)C)c1OC(C)=O [Cmpd 566]	A (> 80)		
COc1ccnc(C(=O)N[C@@H](C)C(=O)O[C@@H](C)[C@H](Oc2ccccc2)C2CCCC2)c1OCOC(C)=O [Cmpd 556]	A (> 80)	A (> 80)	
COc1ccnc(C(=O)N[C@H](C)C(=O)O[C@@H](C)[C@@H](Oc2ccccc2)C(C)C)c1OCOC(C)=O [Cmpd 559]		B (≤ 80)	
CC[C@@H](CCOC)[C@@H](Oc1ccccc1)[C@H](C)OC(=O)[C@H](C)NC(=O)c1nccc(OC)c1OCOC(C)=O [Cmpd 476]	A (> 80)		B (≤ 80)
CCC(CC)[C@@H](Oc1ccc(F)cc1)[C@H](C)OC(=O)[C@H](C)NC(=O)c1nccc(OC)c1OCOC(C)=O [Cmpd 587]	A (> 80)		
COc1ccnc(C(=O)N[C@@H](C)C(=O)O[C@@H](C)[C@H](Oc2ccccc2)C(C)C)c1OCOC(C)=O [Cmpd 475]	A (> 80)	A (> 80)	B (≤ 80)
CCC(CC)[C@@H](Oc1ccccc1)[C@H](C)OC(=O)[C@H](C)NC(=O)c1nccc(OC)c1OCOC(C)=O [Cmpd 477]	A (> 80)	B (≤ 80)	A (> 80)
COc1ccnc(C(=O)N[C@@H](C)C(=O)O[C@@H](C)[C@H](Oc2cccc(Cl)c2)c2ccccc2)c1OCOC(C)=O [Cmpd 637]	B (≤ 80)		
CC[C@@H](CCOC)[C@@H](Oc1ccccc1)[C@H](C)OC(=O)[C@H](C)NC(=O)c1nccc(OC)c1OC(C)=O [Cmpd 482]	A (> 80)		B (≤ 80)
CCC[C@@H](Oc1ccccc1)[C@H](C)OC(=O)[C@H](C)NC(=O)c1nccc(OC)c1OCOC(C)=O [Cmpd 699]	A (> 80)	B (≤ 80)	
COc1ccnc(C(=O)N[C@@H](C)C(=O)O[C@@H](C)[C@@H](CC(C)C)Oc2ccccc2)c1OCOC(=O)C(C)C [Cmpd 1101]	B (≤ 80)		
CCC(C)C(Oc1ccccc1)C(C)OC(=O)C(C)NC(=O)c1nccc(OC)c1OCOC(C)=O (centres unmarked) [Cmpd 692]	A (> 80)	B (≤ 80)	
COc1ccnc(C(=O)N[C@@H](C)C(=O)O[C@@H](C)[C@@H](CC(C)C)Oc2ccccc2)c1OCOC(C)=O [Cmpd 557]		B (≤ 80)	
COc1ccnc(C(=O)N[C@H](C)C(=O)O[C@H](C)[C@@H](Oc2ccccc2)c2ccccc2)c1OCOC(C)=O [Cmpd 549]		B (≤ 80)	
COc1ccnc(C(=O)N[C@@H](C)C(=O)O[C@@H](C)[C@H](Oc2ccccc2Cl)c2ccccc2)c1OC(C)=O [Cmpd 640]	A (> 80)		
